From paper PMC8297771 (PLoS Pathogens, 2021)
Read-outs that look alike come from different tables or passages of the source.

What was measured:
HIV-1_89.6 = test: In vitro anti-viral assay in CEMx174 cells (p24); type: cell-based
Method: CEMx174 cells were infected with HIV-1 primary isolate 89.6 (From infectious clone p89.6, NIH AIDS Reagent Program) at approximately at 10% of cell population determined by FACS analyses. To determine antiviral activity during virus production, STP0404 was added at concentration in the range of 0.1 nM—10 μM during media exchange at 4 hrs post-infection. DMSO was used as a negative control. Cell-free supernatants were measured for p24 antigen production, 5 days post-infection. The anti-HIV-1 efficacy of the two enantiomers of STP0404 were also determined by using the same protocol. All assays were conducted in triplicates. The IC50 values were computed using GraphPad Prism (Version 9) and presented as means ± S.D. of the triplicates. For SIVmac239, CEMx174 cells were infected with viral supernatant containing SIVmac293 at 50,000 TCID50/mL (kind gift from Dr. G. Silvestri, Emory Yerkes National Primate Research Center) with 100 μL/10^6 cells at varying concentrations of STP0404, BI224436, and Raltegravir, and the same above protocol was followed except for that p27 capsid antigen content was measured daily for 5 days post infection.

[1] = Microsomal stability determination; type: in vitro ADME, animal and human; conditions: human, liver microsomes; all tested species; read-out: microsomal stability T1/2
Method: A liver microsome (LM) stability assay was […] of incubation at 0, 10, 20, 30 and 60 min with a […] STP0404 initial concentration. All plates were shaken and centrifuged at 3200 x g for 20 mins. Then 100 μL of supernatant was taken from each well and diluted with 300 μL pure water before analyzed by LC/MS/MS. Animal and human liver microsomes were purchased from Wuxi AppTec, Xenotech or Corning and stored in a freezer (lower than -60°C) before use (Wuxi AppTec, China).

CYP3A and PXR = test: PXR induction in DPX2 cells; type: in vitro ADME
Method: STP0404 to activate PXR, and thereby to induce CYP3A4 expression in DPX2 cell lines following in vitro administration. […] After 48 hrs incubation, the cell viability was assessed fluorimetrically via CellTiter-FluorTM. CYP3A-mediated metabolism and PXR activation are measured using luminescence with Luciferin-IPA and ONE-GloTM, respectively. The light intensity is directly proportional to the extent of PXR activation and accompanying gene transcription in the DPX2 cells (Wuxi AppTec, China).

[2] = In vivo pharmacokinetics in SD rats; conditions: Sprague-Dawley, plasma, Rat
Method: Study design: […]). Group 1 was dosed with STP0404 at 1 mg/kg by single intravenous administration. […] The vehicle used for IV study was DMSO: PEG400: […] Blood samples were collected at 0.0833, 0.25, 0.5, 1, 2, 4, 8, 12 (only for PO groups) and 24 hrs post-dose for Groups 1 to 4. STP0404 concentrations in plasma samples were determined by LC-MS/MS. Preclinical Dog pharmacokinetics study (Study no. 400751-2015020201-DPK): A total of 6 male Beagle dogs were divided into two groups (3 animals/group). Following single STP0404 2 mg/kg oral and intravenous administration to Beagle Dogs, STP0404 concentration was determined in plasma, and pharmacokinetic parameters were calculated. […] The concentrations of STP0404 in plasma were determined by using a LC/MS/MS method.

[3] = In vivo pharmacokinetics in beagle dogs; conditions: male, plasma, Dog
Method: Study design: […]). Group 1 was dosed with STP0404 at 1 mg/kg by single intravenous administration. Groups 2 to 4 were dosed with STP0404 at 20, 40 and 80 mg/kg, respectively, by single oral administration. The vehicle used for IV study was DMSO: PEG400: […] Blood samples were collected at 0.0833, 0.25, 0.5, 1, 2, 4, 8, 12 (only for PO groups) and 24 hrs post-dose for Groups 1 to 4. STP0404 concentrations in plasma samples were determined by LC-MS/MS. Preclinical Dog pharmacokinetics study (Study no. 400751-2015020201-DPK): A total of 6 male Beagle dogs were divided into two groups (3 animals/group). Following single STP0404 2 mg/kg oral and intravenous administration to Beagle Dogs, STP0404 concentration was determined in plasma, and pharmacokinetic parameters were calculated. […] The concentrations of STP0404 in plasma were determined by using a LC/MS/MS method.

[4] = Four-week oral dose toxicology study in rats (GLP); design: species or system SD rats; conditions: Sprague-Dawley, rat, in vivo, read-out: no-observed-adverse-effect level (NOAEL)
Method: STP0404 was administered orally to 10 or 15 SD rats/sex/group at dose levels of 100, 300 and 600 mg/kg/day for 4 weeks to evaluate its potential toxicity. The reversibility of any effects was also assessed following a 2-week untreated recovery period. Control animals (15 animals/sex) received the vehicle, 0.5 w/v% methylcellulose solution, in a similar manner for comparison. In addition, plasma STP0404 concentrations were determined using TK satellite animals (3 animals/sex/group) to evaluate systemic exposure of the animals to the test article. (Study no. YL18402). STP0404 was administered orally as a capsule to 4 or 6 dogs/sex/group at dose levels of 30, 60 and 90 mg/kg/day for 4 weeks to evaluate its potential toxicity. Control animals (6 animals/sex) received empty gelatin capsules in a similar manner for comparison. The reversibility of any effects was also assessed following a 2-week untreated recovery period (2 animals/sex/group for the control and 90 mg/kg/day groups). In addition, plasma STP0404 concentrations were determined using all tested animals (including control group) to evaluate systemic exposure of the animals to the test article (Study no. YL18403). The test was performed according to the Standard Operating Procedures (SOP) the Good Laboratory Practice (GLP) system of the INA Research.

[5] = Human immunodeficiency virus 1, CEMx174

Q: What does the source list for `Cc1nc2c(c(C)c(C)n2Cc2cnn(C)c2)c(-c2ccc(Cl)cc2)c1[C@H](OC(C)(C)C)C(=O)O` [STP0404]?
A: TI (TC50 / IC50) (HIV-1_89.6; HIV-1 89.6 / CEMx174 cells): > 7,140; IC50 (HIV-1_89.6; [5]): 1.4 nM; IC90 (HIV-1_89.6; [5]): 21 nM; half-life at 1 μL [1]: > 2.22 h; EC50 to activate drug metabolizing factors (in words) (CYP3A and PXR): comparatively high concentrations; AUC ([2]; iv, 5 mg/kg (i.v)): 42.7 µM·h; half-life ([2]; iv, 5 mg/kg (i.v)): 3.83 h; AUC ([2]; po, 10 mg/kg (p.o)): 78 µM·h; Cmax ([2]; po, 10 mg/kg (p.o)): 21.4 µM; half-life ([2]; po, 10 mg/kg (p.o)): 4.56 h; bioavailability ([2]; po, 10 mg/kg (p.o), read-out: Ft (oral bioavailability)): 92.8%; AUC ([3]; iv, 2 mg/kg (i.v)): 9.26 µM·h; half-life ([3]; iv, 2 mg/kg (i.v)): 6.11 h; AUC ([3]; po, 2 mg/kg (p.o)): 4.68 µM·h; Cmax ([3]; po, 2 mg/kg (p.o)): 3.98 µM; half-life ([3]; po, 2 mg/kg (p.o)): 6.9 h; bioavailability ([3]; po, 2 mg/kg (p.o), read-out: Ft (oral bioavailability)): 50.6%; NOAEL at 4 weeks ([4]; female rats): 600 mg/kg/day; NOAEL at 4 weeks ([4]; male rats): 300 mg/kg/day
